According to patent US20240342235A1, “COMPOSITION FOR TREATING INFLAMMATORY BOWEL DISEASE, COMPRISING COMBINED EXTRACT OF ISATIDIS FOLIUM AND JUGLANS MANDSHURICA” (MTHERA PHARMA CO., LTD., priority 2021, published 2024):

Assays:
Type in all cases: in vivo, C57BL/6N male mice
myeloperoxidase (MPO) = assay: Myeloperoxidase (MPO) activity in large intestine tissue, Mouse MPO ELISA kit (Example 6); details: 100 mg/kg oral for 7 days, 2.5% DSS for 5 days
Experimental: MPO is an enzyme mainly found in neutrophils, and the activity of MPO in tissues is an indicator of neutrophil infiltration, so it is an indicator of inflammatory response and correlates with the level of intestinal damage caused by inflammatory colitis. Therefore, in order to measure the activity of MPO according to the administration of the combined extract of the present invention, an experiment was conducted as shown in Table 3 of Example 5 above.
2.5% dextran sulfate sodium (DSS) diluted in sterile water was administered in drinking water for a total of 5 days, and 5-aminosalicylic acid (5-ASA), which is a therapeutic agent for inflammatory bowel disease, an extract of Isatidis folium alone, an extract of Juglans mandshurica fruits alone, or the combined extract of the present invention was orally administered for a total of 7 days from 2 days prior to the day of administration with DSS. In order to measure the activity of MPO, the Mouse MPO ELISA kit (HK210-02, Hycult biotechnology) was used. […] The homogenized sample was centrifuged at 1500×g for 15 minutes to obtain a supernatant, and then the activity of MPO was measured using the supernatant.

[1] = test system: inflammatory bowel disease animal model (2.5% DSS); assay: Weight and length of spleen (spleen ratio) in DSS-treated mice (Example 3); details: 100 mg/kg oral, last day of administration
Experimental: 6-week-old C57BL/6N male mice were purchased and pre-bred for one week, and then they were randomly divided into a total of 5 groups of 8 mice per group, and an experiment was conducted as shown in Table 1 below.
2.5% dextran sulfate sodium (DSS) diluted in sterile water was administered in drinking water for a total of 8 days, and 5-aminosalicylic acid (5-ASA), which is a therapeutic agent for inflammatory bowel disease, or the combined extract of the present invention was orally administered for a total of 10 days from 2 days prior to the day of administration with DSS.
A representative symptom that can occur in relation to inflammatory bowel disease includes splenitis. As such, when the spleen becomes inflamed, the size of the spleen is increased by its nature (Nutrients 2019, 11 (11), 2776), and in fact, it is known that the spleen becomes enlarged in the model of IBD induced after DSS treatment (Biol. Pharm. Bull. 43, 450-457 (2020)). Therefore, in order to evaluate the level of inflammation in the spleen of mice according to the administration of the combined extract of the present invention, the mouse of Example 1 was sacrificed on the last day of each administration, and then the weight and length of the spleen of each group compared to those of the negative control group were measured, and the spleen ratio is shown.

[2] = test system: inflammatory bowel disease-induced mouse model (2.5% DSS); assay: Disease activity index (DAI) evaluation II, combined vs single extracts (Example 5); details: 100 mg/kg oral, 2.5% DSS for 5 days, 5 days after administration
Experimental: In order to evaluate whether the combined extract has a synergistic effect compared to that of individual use of an extract of […] folium and an extract of Juglans mandshurica fruits, 6-week-old C57BL/6N male mice were purchased and pre-bred for one week, and then they were randomly divided into a total of 6 groups of 7 mice per group, and an experiment was conducted as shown in Table 3 below. [table] 2.5% dextran sulfate sodium (DSS) diluted in sterile water was administered in drinking water for a total of 5 days, and 5-aminosalicylic acid (5-ASA), which is a therapeutic agent for inflammatory bowel disease, an extract of […] folium alone, an extract of Juglans mandshurica fruits alone, or the combined extract of the present invention was orally administered for a total of 7 days from 2 days prior to the day of administration with DSS. In addition, the disease activity index was measured in the same manner as the method used in Table 2 above, and the results 5 days after administration are shown in FIG. 5.

[3] = test system: inflammatory bowel disease animal model (2.5% DSS); assay: Length of large intestine in DSS-treated mice (Example 2); details: 100 mg/kg oral, last day of administration, negative control 5.44±0.12 cm, normal 7.48±0.30 cm
Experimental: 6-week-old C57BL/6N male mice were purchased and pre-bred for one week, and then they were randomly divided into a total of 5 groups of 8 mice per group, and an experiment was conducted as shown in Table 1 below. 2.5% dextran sulfate sodium (DSS) diluted in sterile water was administered in drinking water for a total of 8 days, and 5-aminosalicylic acid (5-ASA), which is a therapeutic agent for inflammatory bowel disease, or the combined extract of the present invention was orally administered for a total of 10 days from 2 days prior to the day of administration with DSS. It is known that there is a sufficient correlation between the shortened large intestine and histological changes, and the length of the large intestine is commonly used as a morphological parameter of the degree of inflammation. Therefore, in order to evaluate the length of the large intestine of the mouse according to the administration of the combined extract of the present invention, the mouse of Example 1 was sacrificed on the last day of each administration, and then the length of the large intestine was measured, and the average length is shown in FIG. 2.

[4] = test system: inflammatory bowel disease animal model (2.5% DSS); assay: Body weight change in DSS-treated mice (Example 1); details: 100 mg/kg oral, 2.5% DSS in drinking water, 7 days; body weight before DSS = 100%; negative control 89.31±2.75%, normal 105.64±0.54%
Experimental: 6-week-old C57BL/6N male mice were purchased and pre-bred for one week, and then they were randomly divided into a total of 5 groups of 8 mice per group, and an experiment was conducted as shown in Table 1 below. 2.5% dextran sulfate sodium (DSS) diluted in sterile water was administered in drinking water for a total of 8 days, and 5-aminosalicylic acid (5-ASA), which is a therapeutic agent for inflammatory bowel disease, or the combined extract of the present invention was orally administered for a total of 10 days from 2 days prior to the day of administration with DSS. [table] Body weight loss is a representative symptom of inflammatory bowel disease (Scientific Reports volume 10, Article number: 3829 (2020)). The body weight of the mouse was measured once a day at the same time (10 am) using an electronic scale. The rate of change in body weight of each group was obtained by summing the body weight of 8 mice per group and then dividing by 8. The average body weight immediately before the start of administration of 2.5% DSS in drinking water was set as 100%, and the average body weight of each group was calculated every day to measure the rate of change in body weight. Significance was verified by performing a Student's T test for each group between the negative control group to which 2.5% DSS was administered in drinking water and the experimental group.

Nc1ccc(O)c(C(=O)O)c1 [5-ASA, 5-aminosalicylic acid]
decrease of the activity of MPO compared to negative control group (myeloperoxidase (MPO)): 9.6%
weight and length of the spleen compared to negative control group [1]: decreased
disease activity index compared to negative control group [2]: decreased
length of the large intestine [3]: 5.28±0.08 cm
rate of change in body weight [4]: 91.38±2.01%
